Assay results published in US20130041142A1, “HUMAN SWEET TASTE RECEPTOR-ACTING SWEET TASTE REGULATING SUBSTANCE TO SWEET TASTE SUBSTANCE” (priority 2009, published 2013).
Each block holds one compound with its values, some of them ahead of it. Peptide text beside a SMILES is read from it.

Target: T1, human sweet taste receptor (hT1R2+hT1R3) (Homo sapiens, UniProt Q7RTX0+Q8TE23)
T1 construct: includes all portions of respective subunits, that is, all regions of a transmembrane domain; pcDNA5/FRT construct co-transfected with pOG44
T1 sequence (Q8TE23 20-839): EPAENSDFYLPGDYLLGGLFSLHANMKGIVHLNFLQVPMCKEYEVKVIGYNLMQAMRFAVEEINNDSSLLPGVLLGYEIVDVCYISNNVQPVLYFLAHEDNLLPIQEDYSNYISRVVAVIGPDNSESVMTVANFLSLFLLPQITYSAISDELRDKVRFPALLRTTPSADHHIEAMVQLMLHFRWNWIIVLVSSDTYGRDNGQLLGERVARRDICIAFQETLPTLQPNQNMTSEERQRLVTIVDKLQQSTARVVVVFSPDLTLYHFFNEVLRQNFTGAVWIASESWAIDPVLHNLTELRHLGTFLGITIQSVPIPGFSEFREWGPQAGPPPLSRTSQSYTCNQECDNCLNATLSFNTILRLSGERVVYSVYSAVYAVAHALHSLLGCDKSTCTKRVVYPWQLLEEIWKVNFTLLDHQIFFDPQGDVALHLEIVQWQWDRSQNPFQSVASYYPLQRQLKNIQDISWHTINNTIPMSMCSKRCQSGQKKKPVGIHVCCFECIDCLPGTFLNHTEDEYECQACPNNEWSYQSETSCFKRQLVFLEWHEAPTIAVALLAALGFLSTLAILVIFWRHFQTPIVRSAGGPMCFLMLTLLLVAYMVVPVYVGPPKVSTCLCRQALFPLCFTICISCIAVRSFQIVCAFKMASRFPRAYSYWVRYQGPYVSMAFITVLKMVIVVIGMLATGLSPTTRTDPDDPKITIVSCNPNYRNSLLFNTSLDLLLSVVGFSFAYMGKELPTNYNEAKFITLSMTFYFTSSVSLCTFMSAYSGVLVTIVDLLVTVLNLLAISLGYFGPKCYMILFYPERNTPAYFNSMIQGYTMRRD
T1 sequence (Q7RTX0 21-852): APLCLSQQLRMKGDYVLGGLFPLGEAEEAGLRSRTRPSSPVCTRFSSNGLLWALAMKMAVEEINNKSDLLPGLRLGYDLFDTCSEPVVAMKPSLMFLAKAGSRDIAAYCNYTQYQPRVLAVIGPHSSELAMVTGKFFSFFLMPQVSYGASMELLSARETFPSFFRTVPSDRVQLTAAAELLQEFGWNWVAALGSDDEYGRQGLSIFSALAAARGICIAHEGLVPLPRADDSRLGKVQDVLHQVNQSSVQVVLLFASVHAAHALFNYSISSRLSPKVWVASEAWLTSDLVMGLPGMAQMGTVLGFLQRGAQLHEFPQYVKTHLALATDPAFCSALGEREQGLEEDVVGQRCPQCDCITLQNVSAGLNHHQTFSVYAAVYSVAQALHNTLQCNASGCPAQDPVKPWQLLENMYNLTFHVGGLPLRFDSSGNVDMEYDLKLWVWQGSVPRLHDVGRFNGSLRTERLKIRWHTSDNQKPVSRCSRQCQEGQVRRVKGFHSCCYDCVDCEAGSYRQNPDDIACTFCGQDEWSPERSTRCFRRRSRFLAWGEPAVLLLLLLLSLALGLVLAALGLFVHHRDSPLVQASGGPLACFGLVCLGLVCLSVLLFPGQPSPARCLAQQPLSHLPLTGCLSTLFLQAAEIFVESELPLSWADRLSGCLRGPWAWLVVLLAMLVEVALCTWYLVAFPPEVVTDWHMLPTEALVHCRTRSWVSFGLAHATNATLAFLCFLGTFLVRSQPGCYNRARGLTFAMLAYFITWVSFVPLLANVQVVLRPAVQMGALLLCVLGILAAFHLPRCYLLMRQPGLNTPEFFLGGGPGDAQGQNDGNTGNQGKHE
Assay: automated fluorescent calcium imaging (Fluo-4 AM, FlexStation 3) of sweet taste receptor-expressing cells
Type: cell-based
Details: for Change amount in fluorescent intensity (ΔF): 27° C., to 100 seconds
Method: After cultured at 37° C. for 24 hours, the medium was removed, and replaced with 50 μl of a HEPES buffer, and […] of a HEPES buffer containing a fluorescent calcium indicator (Fluo-4 AM attached to Molecular Devices, FLIPR Ca 4 Assay Kit) was further added. Then, this was incubated at 27° C. for 45 minutes to prepare a cell to be subjected to automated fluorescent imaging. […]
In the same manner as that described above, […] subjected to automated fluorescent imaging, so that a final concentration of sucrose became a concentration described in Table 2, a HEPES buffer containing conc. neohesperidin dihydrochalcone was further added so that a final concentration of neohesperidin dihydrochalcone became 2 v/v %, stimulation was performed at 27° C., a fluorescent reaction (excitation at 485 nm, fluorescence at 525 nm) from immediately after addition of the solution to after 100 seconds was measured by using FlexStation 3 (Molecular Devices), and a response of a sweet taste receptor-expressing cell when neohesperidin dihydrochalcone was added to sucrose was quantitated. The vertical axis of FIG. 3 is a maximum (ΔF) of a change amount in a fluorescent intensity between immediately after stimulation and after 100 seconds from stimulation, that is, a response intensity of a cell, and the horizontal axis indicates a sucrose concentration (mM) as expressed by logarithm.

Change amount in fluorescent intensity (ΔF) (aspartame 0.167 mM alone): 6.568
Change amount in fluorescent intensity (ΔF) (aspartame 0.333 mM alone): 12.578
Change amount in fluorescent intensity (ΔF) (aspartame 0.667 mM alone): 33
Change amount in fluorescent intensity (ΔF) (aspartame 2 mM alone): 72.005
SMILES: COC(=O)[C@H](Cc1ccccc1)NC(=O)[C@@H](N)CC(=O)O [Aspartame, aspartame] (H-Asp-Phe-OMe)

Change amount in fluorescent intensity (ΔF) (saccharin 0.167 mM alone): 7.609
Change amount in fluorescent intensity (ΔF) (saccharin 0.333 mM alone): 22.936
Change amount in fluorescent intensity (ΔF) (saccharin 0.667 mM alone): 56.59
Change amount in fluorescent intensity (ΔF) (saccharin 2 mM alone): 86.194
SMILES: O=C1NS(=O)(=O)c2ccccc21 [Saccharin, saccharin]

Change amount in fluorescent intensity (ΔF) (sucrose 3.125 mM alone): 4.2
Change amount in fluorescent intensity (ΔF) (sucrose 6.25 mM alone): 4.6
Change amount in fluorescent intensity (ΔF) (sucrose 12.5 mM alone): 4.1
Change amount in fluorescent intensity (ΔF) (sucrose 25 mM alone): 5.7
Change amount in fluorescent intensity (ΔF) (sucrose 50 mM alone): 9.2
Change amount in fluorescent intensity (ΔF) (sucrose 100 mM alone): 23.3
Change amount in fluorescent intensity (ΔF) (sucrose 200 mM alone): 34.9
concentration below which a response of a sweet taste receptor cell is not observed (sucrose alone): around 50 mM
SMILES: OC[C@H]1O[C@@](CO)(O[C@H]2O[C@H](CO)[C@@H](O)[C@H](O)[C@H]2O)[C@@H](O)[C@@H]1O [Sucrose, sucrose]
